Experimental data reported in patent publication US20150306110A1, “COMPOSITIONS AND METHODS FOR TREATMENT OF INFLAMMATION AND HYPERKERATOTIC LESIONS” (Novelix Pharmaceuticals, Inc., priority 2008, published 2015).

What was measured:
Melanoma-TLM1 = assay: Cell growth/survival, canine melanoma TLM1 cells; format: cell-based; conditions: Canis lupus familiaris
Method: (§1) Melanoma cell lines used in this study were maintained in Dulbecco's modified Eagle medium (DMEM with 4500 mg/l glucose) supplemented with 10% FCS from Gibco BRL (Life Technologies, Berlin, Germany). The canine mastocytoma cell line C2 (DeVinney et al, Am. J. Respir. Cell Mol. Biol. 3:413-20, 1990) was used in this study, along with additional human cell lines: RD-ES and TC-71 (human Ewing's sarcoma), SAOS2 (human osteosarcoma), HT-1080 (human fibrosarcoma), Caco-2 (human colon adenocarcinoma), A549 (human lung adenocarcinoma), Hep-G2 and Hep-3B (human hepatocellular carcinoma), SK-N-DZ and SK-N-FI (human embryonal neuroblastoma), HTB9 (human bladder cancer), MDA-468 and MCF-7 (human breast cancer) and SW872 liposarcoma. All breast cancer cells were routinely cultured in DMEM/F-12 or in DMEM alone supplemented with 10% FCS at 37° C. in a humidified 5% CO2 atmosphere. RD-ES and TC-71 sarcoma cell lines were maintained in RPMI 1640 (Biochrom KG, Berlin, Germany) containing 10% FCS at 37° C. in a humidified 5% CO2 atmosphere. […]
(§2) Briefly, cells were maintained in standard medium, harvested, and plated at equal densities (750,000 cells in 5 cm tissue culture dishes). […] For the assessment of cell growth, the number of surviving cells was determined using an automated cell counter from Beckman Coulter GmbH (Krefeld, Germany). […]

human fibroblasts = assay: Survival of fibroblasts at 80% and 30% confluency; format: cell-based; conditions: 2.5 μM; for Mean survival, percentage of control-treated cells: fibroblasts, n=3
Method: (§3) All cells were treated with 2.5 μM NVX-207. Percentage (means±S.E., n=3) of control-treated cells are given. […] Mean survival in NVX-207 treated fibroblasts at 80% confluency was 92% (S.E.=3.8) versus 3.8% mean survival (S.E.=0.4) at 30% confluency. […] HUVECs, keratinocytes and fibroblast cells were obtained from Lonza GmbH (Wuppertal, Germany) and cultivated according to the manufacturer's instructions.
(§4) Human umbilical vein endothelial cells (HUVEC), keratinocytes and fibroblast cells were obtained from Lonza GmbH (Wuppertal, Germany) and cultivated according to the manufacturer's instructions. […] The IC50 value of betulinic acid in human keratinocytes was recently determined to be ˜5.0 μg/ml (Tino Galgon al., Exp Dermatol. 14:736-43, 2005), while the IC50 of NVX-207 is ˜0.7 µg/ml. […] Mean survival in NVX-207 treated fibroblasts at 80% confluency was 92% (S.E.=3.8) versus 3.8% mean survival (S.E.=0.4) at 30% confluency. […] Under normal physiological conditions, the endothelium, as well as skin fibroblasts and skin keratinocytes, show relatively low turn-over and limited cell divisions to maintain tissue integrity.
(§5) Keratinocytes at high confluence (e.g., 80%) mimic normal physiological conditions in which these cells divide more slowly (fewer cell divisions per unit of time). In contrast, keratinocytes in psoriatic lesions divide more rapidly, as do keratinocytes cultured at lower confluency (e.g., 30%). Thus, the 30% confluency conditions were considered a model for psoriasis whereas the behavior of 80% confluent cells more closely reflects the conditions observed in normal skin.

HAT 1080 (fibrosarcoma) = assay: Cell growth/survival, HAT 1080 fibrosarcoma cells; format: cell-based; conditions: Homo sapiens, TP53 mut.
Method: as §1, §2

Hep-G2 = assay: Cell growth/survival, Hep-G2 hepatocellular carcinoma cells; format: cell-based; conditions: Homo sapiens, HepG2, TP53 neg.
Method: as §1, §2

Hep-3B = assay: Cell growth/survival, Hep-3B hepatocellular carcinoma cells; format: cell-based; conditions: Homo sapiens, Hep3B, TP53 null
Method: as §1, §2

[1] = tested on: human umbilical vein endothelial cells (HUVEC); assay: Survival of HUVEC at 80% and 30% confluency; format: cell-based; conditions: 2.5 μM; for Mean survival, percentage of control-treated cells: HUVEC, n=3
Method: as §3, §4, §5

GOTO (autonomic ganglia) = assay: Cell growth/survival, GOTO neuronal cancer cells; format: cell-based; conditions: Homo sapiens, TP53 neg.
SW872 (liposarcoma) = assay: Cell growth/survival, SW872 liposarcoma cells; format: cell-based; conditions: Homo sapiens, TP53 mut.
Method: as §1, §2

Mastocytoma-C2 = assay: Cell growth/survival, canine mastocytoma C2 cells; format: cell-based; conditions: Canis lupus familiaris
Method: as §1, §2

[2] = tested on: canine mammary carcinoma, scent gland carcinoma, soft tissue sarcoma; assay: Activity of NVX-207 in additional canine cancer patients (summary); conditions: dog, in vivo
Excerpt: Overall survival time is given in months.

A549 = assay: Cell growth/survival, A549 lung adenocarcinoma cells; format: cell-based; conditions: Homo sapiens, TP53 neg.
Method: as §1, §2

[3] = tested on: melanoma, liposarcoma, colon-and lung cancer cells; assay: Cell growth in select cancer cell lines, NVX-207 compared to betulinic acid (FIGS. 1A-D); format: cell-based; conditions: various cancer and non-cancer cells, human and animal cell lines
Method: FIGS. 1A-D show cell survival in select human cancer cell lines: 518A2 melanoma (FIG. 1A), SW872 liposarcoma (FIG. 1B), Caco-2 colon carcinoma (FIG. 1C) and A549 lung carcinoma (FIG. 1D). Cell survival as a percentage of untreated controls (y-axis) in response to NVX-207 (grey lines) or betulinic acid (black lines) in μg/ml (x-axis) are shown.
as §1, with “liposarcoma.” for “liposarcoma. All breast cancer cells were routinely cultured in DMEM/F-12 or in DMEM alone supplemented with 10% FCS at 37° C. in a humidified 5% CO2 atmosphere. RD-ES and TC-71 sarcoma cell lines were maintained in RPMI 1640 (Biochrom KG, Berlin, Germany) containing 10% FCS at 37° C. in a humidified 5% CO2 atmosphere.”
as §2

Soft tissue sarcoma = assay: Intra-tumoral NVX-207 in canine patient, soft tissue sarcoma; conditions: Patient #1, 11, F; 48 treatment cycles

With `C=C(C)[C@@H]1CC[C@]2(C(=O)OCC(N)(CO)CO)CC[C@]3(C)[C@H](CC[C@@H]4[C@@]5(C)CC[C@H](OC(C)=O)C(C)(C)[C@@H]5CC[C@]43C)[C@@H]12` [NVX-207, 3-O-acetylbetulinic acid-2-amino-3-hydroxy-2-hydroxymethylpropyl ester] the IC50 (Melanoma-TLM1) was 3.8 µM, the “Mean survival, percentage of control-treated cells” value (“Mean survival, percentage” for short) (human fibroblasts; 30% confluency) was 3.8% and the “Mean survival, percentage” value (human fibroblasts; 80% confluency) was 92%. For the same molecule, the “More active against proliferating cells (30% vs 80% confluency)” value (human fibroblasts; human fibroblasts) was “over 20 fold”, the IC50 (HAT 1080 (fibrosarcoma)) was 5.6 µM and the IC50 (Hep-G2) was 3.3 µM. The IC50 (Hep-3B) was 3.8 µM, the “Mean survival, percentage” value ([1]; 30% confluency) was 18.3% and the “Mean survival, percentage” value ([1]; 80% confluency) was 90.3%. For the same molecule, the “More effective at 30% confluency compared to 80% confluency” value ([1]; endothelial cells) was roughly 5 fold, the IC50 (GOTO (autonomic ganglia)) was 2 µM and the IC50 (SW872 (liposarcoma)) was 1.8 µM. The IC50 (Mastocytoma-C2) was 3 µM, the Inflammation during treatment [2] was “absence of inflammation” and the IC50 (A549) was 2.5 µM. The “Efficacy on a molar basis in promoting cell death compared to betulinic acid” value [3] was “up to 5 fold” and the “Overall Survival” value (Soft tissue sarcoma) was 15 months.
